Where two headings read alike, the source gives them in different places.
Tests used:
[1] = Cell toxicity against Vero cells by MTT assay; settings: African green monkey
Procedure: (§1) Cell toxicity was monitored by establishing the effect of lysozyme HCl against Vero cells (epithelial cells of monkey kidneys). The cells were seeded in 96-well plates at the concentration of 1×10^4 cells/well. 24 hours after seeding, the cells were treated with serial dilutions of lysozyme HCl or chloroquine (as control), in a final volume of 200 in triplicate. After 72 hours' incubation at 37° C. with 5% CO2, cell viability was measured by MTT assay (D'Alessandro, M. et al., Differential effects on angiogenesis of two antimalarial compounds, dihydroartemisinin and artemisone: Implications for embryotoxicity, Toxicology. 241 (2007) 66-74. Doi: 10.1016/j.tox.2007.08.084).
(§2) The data were calculated as percentage cell viability using the formula:
(§3) [(absorbance of sample−blank of cell-free sample)/mean absorbance of control of media]×100.
(§4) The cytotoxicity of ovotransferrin and chloroquine (CQ) was measured by MTT assay, similarly to the method used for lysozyme HCl.

Vero cells = experiment: Cell toxicity against Vero cells by MTT assay; settings: MTT assay
Procedure: as §1, §2, §3, §4

SARS-CoV-2 [2] = experiment: Virucidal activity, plaque test; type: cell-based
[3] = tested on: Micrococcus lysodeikticus cells; experiment: Enzyme activity, enzymatic turbidimetric method (FIP method); type: biochemical
Procedure: • Flow rate: 1 ml/min Determination of assay value (enzymatic turbidimetric method using Micrococcus lysodeikticus cells): according to the FIP method (Pharmaceutical Enzyme, Ed 1997, 84, 375) and J Pharm Pharmacol. 2001; 53 (4); 549-54.

SARS-CoV-2 [4] = type: cell-based; settings: for Percentage replication of SARS-CoV-2 (lysozyme only): no ovotransferrin

## CCN(CC)CCCC(C)Nc1ccnc2cc(Cl)ccc12 (stereo not drawn) [CQ, chloroquine, reference compound]
[1]
  CC50 at 72 h: 95.3 ± 18 µM
Vero cells; unit not given
  CC10: 20.93±4.39

## Heat-treated lysozyme: lysozyme HCl heat-treated at 99° C. for 40 minutes
SARS-CoV-2 [2]; 0.42 mg/ml
  mean PFU/ml (average of three experiments): 58.61 PFU/ml
  percentage (PFU relative to untreated infected cells): 57.2%
SARS-CoV-2 [2]; 0.42 mg/ml, plaque assay
  infectivity of SARS-CoV-2 reduced by: 57.2%
SARS-CoV-2 [2]; 0.56 mg/ml
  mean PFU/ml (average of three experiments): 60.41 PFU/ml
  percentage (PFU relative to untreated infected cells): 58.9%
SARS-CoV-2 [2]; 0.56 mg/ml, plaque assay
  infectivity of SARS-CoV-2 reduced by: 58.9%
SARS-CoV-2 [2]; 1 mg/ml
  mean PFU/ml (average of three experiments): 71.32 PFU/ml
  percentage (PFU relative to untreated infected cells): (69.6%)
SARS-CoV-2 [2]; 1 mg/ml, plaque assay
  infectivity of SARS-CoV-2 reduced by: 69.6%

## lysozyme hydrochloride [Lysozyme HCl]
Vero cells; 72 hours
  CC50 for Vero cells: 13.3 mg/mL
[3]; No heat treatment
  Enzyme activity (turbidimetric method): 98.7
[3]; after dry heat treatment (74° C. for 60 min)
  Enzyme activity (turbidimetric method): 98.8
[3]; after dry heat treatment (99° C. for 40 min)
  Enzyme activity (turbidimetric method): 98.1
[3]; after heat treatment in aqueous solution, 90° C. for 3 minutes
  Enzyme activity (turbidimetric method): 97.3
[3]; after heat treatment in aqueous solution, 90° C. for 6 minutes
  Enzyme activity (turbidimetric method): 97.4
[3]; after heat treatment in aqueous solution, 90° C. for 20 minutes
  Enzyme activity (turbidimetric method): 92.1
[3]; after heat treatment in aqueous solution, 90° C. for 25 minutes
  Enzyme activity (turbidimetric method): 88.8
SARS-CoV-2 [4]
  antiviral activity against SARS-CoV-2 infection in the in vitro test: high antiviral activity
  percentage viral replication: very low, and close to zero
SARS-CoV-2 [4]; Dry heat treatment (74° C. for 60 min), 0.33 mg/mL
  % viral replication (average of 9 replications): 83.24%
SARS-CoV-2 [4]; Dry heat treatment (74° C. for 60 min), 0.5 mg/mL
  % viral replication (average of 9 replications): 42.05%
SARS-CoV-2 [4]; Dry heat treatment (74° C. for 60 min), 0.75 mg/mL
  % viral replication (average of 9 replications): 11.31%
SARS-CoV-2 [4]; Dry heat treatment (99° C. for 40 min), 0.33 mg/mL
  % viral replication (average of 9 replications): 60.32%
SARS-CoV-2 [4]; Dry heat treatment (99° C. for 40 min), 0.5 mg/mL
  % viral replication (average of 9 replications): 35.56%
SARS-CoV-2 [4]; Dry heat treatment (99° C. for 40 min), 0.75 mg/mL
  % viral replication (average of 9 replications): 16.58%
SARS-CoV-2 [4]; Heat treatment in aqueous solution, 90° C. for 3 minutes, 0.33 mg/mL
  % viral replication (average of 9 replications): 87.85%
SARS-CoV-2 [4]; Heat treatment in aqueous solution, 90° C. for 3 minutes, 0.5 mg/mL
  % viral replication (average of 9 replications): 67.97%
SARS-CoV-2 [4]; Heat treatment in aqueous solution, 90° C. for 3 minutes, 0.75 mg/mL
  % viral replication (average of 9 replications): 15.55%
SARS-CoV-2 [4]; Heat treatment in aqueous solution, 90° C. for 6 minutes, 0.33 mg/mL
  % viral replication (average of 9 replications): 87.96%
SARS-CoV-2 [4]; Heat treatment in aqueous solution, 90° C. for 6 minutes, 0.5 mg/mL
  % viral replication (average of 9 replications): 51.62%
SARS-CoV-2 [4]; Heat treatment in aqueous solution, 90° C. for 6 minutes, 0.75 mg/mL
  % viral replication (average of 9 replications): 9.88%
SARS-CoV-2 [4]; Heat treatment in aqueous solution, 90° C. for 20 minutes, 0.33 mg/mL
  % viral replication (average of 9 replications): 78.00%
SARS-CoV-2 [4]; Heat treatment in aqueous solution, 90° C. for 20 minutes, 0.5 mg/mL
  % viral replication (average of 9 replications): 36.10%
SARS-CoV-2 [4]; Heat treatment in aqueous solution, 90° C. for 20 minutes, 0.75 mg/mL
  % viral replication (average of 9 replications): 18.30%
SARS-CoV-2 [4]; Heat treatment in aqueous solution, 90° C. for 25 minutes, 0.33 mg/mL
  % viral replication (average of 9 replications): 42.06%
SARS-CoV-2 [4]; Heat treatment in aqueous solution, 90° C. for 25 minutes, 0.5 mg/mL
  % viral replication (average of 9 replications): 24.61%
SARS-CoV-2 [4]; Heat treatment in aqueous solution, 90° C. for 25 minutes, 0.75 mg/mL
  % viral replication (average of 9 replications): 2.62%
SARS-CoV-2 [4]; No heat treatment, 0.33 mg/mL
  % viral replication (average of 9 replications): 79.72%
SARS-CoV-2 [4]; No heat treatment, 0.5 mg/mL
  % viral replication (average of 9 replications): 58.13%
SARS-CoV-2 [4]; No heat treatment, 0.75 mg/mL
  % viral replication (average of 9 replications): 25.51%
SARS-CoV-2 [4]; lysozyme HCl 0.32 mg/ml
  Percentage replication of SARS-CoV-2 (lysozyme only): 93%
SARS-CoV-2 [4]; lysozyme HCl 0.42 mg/ml
  Percentage replication of SARS-CoV-2 (lysozyme only): 89%
SARS-CoV-2 [4]; lysozyme HCl 0.56 mg/ml
  Percentage replication of SARS-CoV-2 (lysozyme only): 93%
SARS-CoV-2 [4]; lysozyme HCl 0.75 mg/ml, in the absence of ovotransferrin
  viral replication inhibited by: about 62%
SARS-CoV-2 [4]; lysozyme HCl 0.75 mg/ml
  Percentage replication of SARS-CoV-2 (lysozyme only): 62%
SARS-CoV-2 [2]; 0.42 mg/ml
  mean PFU/ml (average of three experiments): 70 PFU/ml
  percentage (PFU relative to untreated infected cells): 83.9%
SARS-CoV-2 [2]; 0.56 mg/ml
  mean PFU/ml (average of three experiments): 61.65 PFU/ml
  percentage (PFU relative to untreated infected cells): 84.1%
SARS-CoV-2 [2]; 1 mg/ml
  mean PFU/ml (average of three experiments): 75 PFU/ml
  percentage (PFU relative to untreated infected cells): (<100%)
SARS-CoV-2 [2]; any of the doses used (0.42, 0.56, 1 mg/ml), plaque assay
  reduction of infectivity of SARS-CoV-2: did not reduce the infectivity

Source: patent US20230174575A1 (priority 2020, published 2023)
